pIC50: −log10 of the molar value.
Columns and labels:
HIV-1 (JRCSF) [1] = test: Anti-HIV activity (Test Example 1-1): MaRBLE cells infected with HIV-1 (JRCSF), compound added 2 h after seeding, luciferase readout after 7 days; assay type: cell-based; conditions: Human immunodeficiency virus 1, 168 h, 7 days culture, firefly luciferase, virus growth rate, 4 parameter Logistic Model (XLfit 4)
Protocol: (§1) This example was carried out by reference to Journal of Clinical Microbiology, 2007, Vol. 45, pages 477 to 487.
(§2) An anti-HIV activity was evaluated using MaRBLE cells obtained by transfection of HPB-M(a) derived from human T-lymphocytes with a luciferase gene of which expressions were regulated by HIV-1 LTR and a CCR5 gene etc.
The MaRBLE cells were suspended in RPMI1640 containing 10% FCS (fetal calf serum) and penicillin/streptomycin. After infected with HIV-1 (JRCSF), the cells were seeded on a 96-well plate (1×10^5 cells/well). As a control group, the same number of uninfected cells were seeded.
After incubating the plate under the condition of 37° C. and 5% CO2 for 2 hours, a fresh culture medium or a culture medium containing an appropriately diluted test compound was added to each well.
After further culturing at 37° C. under 5% CO2 for 7 days, an intracellular luciferase activity was measured using Dual-Glo Luciferase assay system (Promega).
(§3) The virus growth rate was calculated by the following equation.
(§4) Virus growth rate (%)=(A/B)×100
(§5) A=(Firefly luciferase activity in the well with the compound)−(Firefly luciferase activity of uninfected cells)
(§6) B=(Firefly luciferase activity in the well without the compound)−(Firefly luciferase activity of uninfected cells)
The IC50 of the compound was calculated by applying virus growth rates of various concentrations to 4 parameter Logistic Model of curve-fitting software XLfit 4.

[2] = Single-dose oral toxicity study in mice; assay type: in vivo; conditions: male ICR mice, suspension in 0.5% methylcellulose, conditions observed on the next day
Protocol: (§7) The compounds of Examples 2, 4 and 12 were used as test compounds.
10 mL/kg of a test compound suspended in 0.5% methylcellulose was orally administered to male ICR mice (6 week-old, one animal in a group).
On the next day after the administration, the conditions of the mice were observed.

[3] = Pharmacokinetic study in mice (oral administration); assay type: in vivo; conditions: mouse, serum, 25 mg/kg, male ICR mice, suspension in 0.5% methylcellulose 2.5 mg/mL at 10 mL/kg, 12 hours after administration, HPLC, read-out: serum concentration of the test compound
Protocol: The compounds of Examples 2, 4, 5, 12 and 16 were used as test compounds.
A test compound suspended in 0.5% methylcellulose (2.5 mg/mL) was orally administered at 10 mL/kg to male ICR mice (6 week-old, three animals in a group). At 12 hours after the administration, the blood of the mice was collected, and the concentrations of the test compound in the serum were measured by HPLC.

[4] = system: bone marrow polychromatic erythrocytes; test: In vivo micronucleus study in mice; conditions: male ICR mice, oral twice at 24 hour interval, bone marrow 24 hours after final administration, highest dose group with all animals alive
Protocol: as §7
A test compound suspended in 0.5% methylcellulose was orally administered to male ICR mice (8 week-old, three animals in a group) twice at a 24 hour interval. To a control group, 0.5% methylcellulose was orally administered in a similar manner.
At 24 hours after the final administration, the mice in the highest dose group in which all the animals were alive were killed by exsanguination under ether anesthesia, and one thigh bone was collected from each animal. After cutting the collected thigh bone at the proximal end, bone marrow cells were washed out with fetal calf serum to a centrifuge tube using a disposable syringe, and after centrifugation (1000 rpm, 5 minutes, HITACHI 05PR-22), a part of the supernatant was discarded to obtain a suspension of bone marrow cells. This suspension was smeared on a slide glass, and then dried followed by methanol fixation to prepare a sample.
The sample was observed by acridine orange staining.
The sample of which frequency of MNPCE exceeds 0.5% was judged positive.
Frequency of MNPCE (%)=(MNPCE number/Observed PCE number)×100

HIV-1 (JRCSF) [5] = test: Anti-HIV activity (Test Example 1-2): infected MaRBLE cells seeded on plate containing drug solution, luciferase readout after 7 days; assay type: cell-based; conditions: Human immunodeficiency virus 1, 168 h, MaRBLE cells infected with HIV-1 (JRCSF), 7 days culture, firefly luciferase, FORECAST linear regression (Excel)
Protocol: as §1, §2
A plate containing a drug solution was made by dispensing a fresh culture medium or an appropriately diluted test compound to a 96-well plate.
MaRBLE cells were suspended in RPMI1640 containing 10% FCS (fetal calf serum) and penicillin/streptomycin. After infected with HIV-1 (JRCSF), the cells were seeded on the above-described plate containing a drug solution ([…] cells/well). As a control group, the same number of uninfected cells were seeded.
After culturing at 37° C. under 5% CO2 for 7 days, an intracellular luciferase activity was measured using Dual-Glo Luciferase assay system (Promega).
as §3, §4, §5, §6
The IC50 of the compound was calculated by plotting the concentration with the logarithm and by plotting the virus growth rate with a real number, using the FORECAST function (linear regression technique) of Microsoft Office Excel 2003.

Structure (SMILES) | pIC50 (HIV-1 (JRCSF) [1]) | dose at which the compound showed good safety (single oral dose) [2] [mg/kg] | concentration at 12 h [3] [ng/mL] | micronucleus test result (frequency of MNPCE exceeding 0.5% judged positive) [4] | pIC50 (HIV-1 (JRCSF) [5])
Cc1noc(C)c1-c1ccc2c(=O)cc(C)n(-c3cc(N)c(F)cc3F)c2c1 [Example 2, 1-(5-amino-2,4-difluorophenyl)-7-(3,5-dimethylisoxazol-4-yl)-2-methyl-1,4-dihydro-4-oxoquinoline] | 8.85 | 2000 | ≥ 500 | negative | –
Cc1noc(C)c1-c1ccc2c(=O)cc(C)n(-c3cc(N)c(F)cc3F)c2n1 [Example 4, 1-(5-amino-2,4-difluorophenyl)-7-(3,5-dimethylisoxazol-4-yl)-2-methyl-1,4-dihydro-4-oxo-1,8-naphthyridine] | 9.42 | 750 | ≥ 500 | negative | –
Cc1noc(C)c1-c1ccc2c(=O)cc(C)n(-c3cc(N)c(F)c(F)c3F)c2n1 [Example 12, 1-(5-amino-2,3,4-trifluorophenyl)-7-(3,5-dimethylisoxazol-4-yl)-2-methyl-1,4-dihydro-4-oxo-1,8-naphthyridine] | – | 1000 | ≥ 500 | negative | 8.72
